The source of these data is patent USRE39682E1, “Farnesyl derivatives and pharmaceutical compositions containing them” (Ramot at Tel Aviv University Ltd., priority 1993, dated 2007).

For experiment [1], the system named is ras-transformed NTH3T3 cells. Conditions: cited from earlier work.
Experiment [2] deals with ras methylation. Conditions: ras-transformed NTH3T3 cells; cited from earlier work.
Experiment [3] concerns neutrophils chemotaxis. To be noted: cited from earlier work.
In experiment [4] the target is T1, prenylated protein methyltransferase (PPMTase) (Rattus norvegicus, UniProt Q9WVM4).
T1 construct: from tissue; host or cells: rat cerebellum, synaptosomal membranes
Kind of experiment: Methylation of AFC by PPMTase in rat cerebellar synaptosomal membranes. Type of experiment: biochemical. To be noted: for Ki: Table II, given as range, read-out: Ki. An excerpt: As a substrate for methylation served AFC and as the donor of methyl served [methyl-H^3] labelled AdoMet. As a source of the enzyme prenylated protein methyltransferase (PPTMase) served rat cerebellar membranes which are known to be membranes enriched with this enzyme (Ben-Baruch, Biochem. Biophys. Res. Commun., 195, 282-288. (1993)).
Charles River adult male rats were used for preparation of cerebellar synaptosomal membranes. Cerebella were removed after decapitation and homogenized in 0.32M sucrose containing 50 mM Tris-HCl pH 7.4, 3 mM EDTA, 1 mM EGTA, 5 unit/ml aprotinin and 5 μg/ml pepstatin (buffer A) to yield 10% (w/v) homogenates. Nuclear fractions were obtained by 10 min. 600×g centrifugation and synaptosomal fractions were obtained by 20 mins. 14,500×g centrifugation. Membranes of the various cell types used were prepared in the above buffer A by a 60 min. spin at 100,000×g.
Pellets were resuspended in the homogenization buffer and stored at −70° C. Methylation assays were performed at 37° C. in 50 mM Tris-HCl buffer pH 7.4, using 75-125 μg protein, 25 μM [methyl-^3H]AdoMet ([…] in DMSO) in a total volume of 50 μl. DMSO concentration in all assays was 4%.
Reactions were terminated after 10 min. by adding 500 μl chloroform methanol (1:1) and a subsequent addition of 250 μl H2O, mixing them and subsequently by phase separation. A portion of 125 μl of the chloroform phase was dried down at 40° C. and 200 μl of 1M NaOH/1% SDS solution were added thereto. The [^3H]methanol thus formed was counted by the vapor phase equilibrium method as described previously (Hakiai et al., Cell Mol. Neurobiol., 11, 415-431, (1991); Lenner et al., Cell Mol. Neurbiol., 12, 333 and 3351, (1992); Ben-Baruch et al., Biochem. Biophy. Res. Commun., 195, 282-288, (1993)). Typical background counts (i.e. counts of methylation with no AFC added) were 50-100 cpm while typical methylation counts with AFC as a substrate yielded 500 to 6000 cpm. Assays were performed in triplicate and background counts subtracted. Methylation of endogenous substrates, in intact cells, and [α-^32P] GTP-blot overlay assays and gel electrophoreses were performed as detailed previously (Hakiai et al., supra (1991); Lenner et al., supra (1993)).

Experiment [5] deals with platelet aggregation. To be noted: cited from earlier work.
In experiment [6] the test system is Ha-ras-transformed rat1 cells. In words: Growth of ras-transformed rat1 cells (cell counting). The experiment is classed as cell-based, rat. Conditions: for EC50: Rattus norvegicus, 168 h, day 7 of drug treatment, estimated from dose response curves, read-out: Inhibition of rab-transformed rat1 cell growth EC50; for effects on cell growth of ras-transformed rat1 cells: drug concentrations up to 200 μM. An excerpt:
The cell lines employed were rat1, -EJ, which are rat1 cells stably expressing Val- 12 activated human Ha-ras gene (Land H. et al., Nature, 304, 596-602, (1983)); V-raf-3T3, which are 3T3 cells stably expressing the V-raf gene (Xu, N., et al., Proc. Natl. Acad. Sci., 90, 6741-6745); RB-22, which are 3T3 cells stably expressing the rat Erb-B2 gene (Peles, et al., EMBO J., 10, 2077-2086 (1991)) CO6O cells (SV40-CHO), which are CHE cells stably expressing the SV-40 T-antigen gene (Lavi, Proc. Natl. Acad. Sci., 78, 6144-6148 (1981)); human endometrial carcinoma cell line HEC1A, which are cells that express activated K-ras (Enomoto T., Cancer Res., 50, 6139-6145; mouse B16F10 melanoma cells, rat pheochromocytoma PC12 cells, […] cells CHE and COS cells.
HEC1A, V-raf-3T3 and SV40-CHE cells were grown in Dulbecco's modified Eagle medium (DMEM) containing 10% fetal calf serum (FCS), 4 mM L-glutamine, 10 μg/ml streptomycin and 10 U/ml penicillin. Rat1 and -EJ cells were grown in the same medium except that it was supplemented with 12.5 U/ml nyostatin. RB-22 cells were grown in modified DMEM (1 mM sodium pyruvate, 20 mM sodium bicarbonate)/10% FCS containing 4 mM L-glutamine, […] streptomycin, 10 U/ml penicillin. PC-12 cells were grown in DMEM 15% FCS/5% horse serum and the above noted antibiotics.
HEC1A cells were plated in 24 well plates at a density of 5×10^3 cells per well and fed with 1 ml of medium. The cells were grown at 37° C. in a humidified atmosphere of 95%/5% air/CO2. All other cell types employed were plated in 24 well plates at a density of 2×10^3 cells per well and fed with the appropriate medium.
Cultures were treated with farnesyl derivatives or with solvent either 3 hrs following plating or one day after plating as indicated. […] Control cultures received 0.1% DMSO only. Cultures were fed on days 6, 7 and 9 of the experiment with the drugs or with solvent-containing media.
Cells were counted following 3, 7 and 10 days of beginning of treatments with drugs. For counting, cells were detached from plates with trypsin/EDTA, and collected by a low speed spin in the presence of DMEM/10% FCS. The pelleted cells were resuspended in a small volume of DMEM/10% FCS and counted under the microscope. Viability of cells was estimated by staining with (3-(4,5-dimethylthiosol-2-yl)-2,5-diphenyltetrazolium bromide (MTT) and microscopic examination of the stained and unstained cells, or spectrophotometric estimation (OD490, 590) of the total stain in each well. Non viable cells were estimated by the trypan blue exclusion method.
Cells were plated at a density 2×10^3/well and received either solvent or drugs one day later. Following 3, 7, or 10 days of the drugs-treatment as described above, cells were collected and the number of cells in each well was estimated by direct counting. […] The effect was apparent after a delay of at least three days. About 40-60% inhibition of cell growth was induced either by FTA or by FTS observed on days 7 and 10 of the treatment.

T1 sequence (Q9WVM4 whole entry): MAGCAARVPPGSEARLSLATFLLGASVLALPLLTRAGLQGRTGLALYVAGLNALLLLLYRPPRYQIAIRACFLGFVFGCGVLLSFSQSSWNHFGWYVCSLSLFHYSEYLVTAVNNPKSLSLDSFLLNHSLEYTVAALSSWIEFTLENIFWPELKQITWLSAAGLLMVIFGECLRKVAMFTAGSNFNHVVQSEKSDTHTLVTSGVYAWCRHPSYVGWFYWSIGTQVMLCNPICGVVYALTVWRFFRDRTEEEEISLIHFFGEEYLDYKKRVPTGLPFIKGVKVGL

On to `CC(=O)N[C@@H](CSC/C=C(\C)CC/C=C(\C)CCC=C(C)C)C(=O)O` (stereo in doubt) [AFC, N-acetyl-trans-trans-farnesyl-L-cysteine], for which the “inhibition of cell growth” value in experiment [1] is recorded as “does not inhibit their growth”. The “inhibition of ras methylation” value in experiment [2] is listed as “can inhibit ras methylation”. Moreover, in experiment [3], the “inhibition of neutrophils chemotaxis” value was “inhibit”. Also, the “[3H-methyl]ester formed” value came to 3200 ± 130 cpm/assay in experiment [4] (100 μM AFC alone as substrate) and 3700 ± 150 cpm/assay in experiment [4] (200 μM of the substance alone as substrate). In experiment [5], the “inhibition of platelet aggregation” value was “inhibit”.
One may read the EC50 as the concentration needed to bring the measured effect to its halfway point. One may read the Ki as the equilibrium dissociation constant of an inhibitor or competing ligand from its target. As to `CC(C)=CCC/C(C)=C/CC/C(C)=C/CSc1ccc(N)cc1C(=O)O` [5-amino FTS], in experiment [6], the EC50 was above 200 µM and the “effects on cell growth of ras-transformed rat1 cells” value is “not active”. Also, in experiment [4], the “serves as substrate for PPMTase methylation” value is “do not serve as substrates” and the Ki lay in the range of 66.1 to 80.5 µM.
Take `CC(C)=CCC/C(C)=C/CC/C(C)=C/CNc1ccc(Cl)c(C(=O)O)c1` [NFCB, 2-chloro-5-farnesylaminobenzoic acid]: in experiment [6], the concentration for a half-maximal effect (EC50) is 20 to 40 µM; the “effects on cell growth of ras-transformed rat1 cells” value is “effects similar to those observed with FTS and FTA”. In addition, in experiment [4], the “serves as substrate for PPMTase methylation” value is “do not serve as substrates” and the Ki was 6.6 to 9.5 µM.
